According to patent US11912693B2, “Compounds for modulating S1P1 activity and methods of using the same” (TREVENA, INC., priority 2017, dated 2024):

Tests used:
[1] = target: T1, human sphingosine-1-phosphate receptor 1 (S1P1) (Homo sapiens (Human), UniProt P21453); assay: Inhibition of cAMP production (HTRF cAMP HiRange), S1P1 CHO-K1 cells; assay type: cell-based; settings: for Emax: CHO-K1, efficacy (SPAN) normalized to fingolimod, read-out: hS1P1 cAMP SPAN; for hS1P1 cAMP pEC50: inhibition of cAMP production, S1P1 CHO-K1 cells
Procedure, shortened: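 CHO-K1 cells stably co-expressing human S1P1 (C-terminal Prolink tag) and EA-β-arrestin2 were grown in AssayComplete Media 6 at 37° C. and 5% CO2, plated, and incubated overnight. Agonist-driven inhibition of intracellular cAMP was read by TR-FRET with the HTRF cAMP HiRange kit on a PheraStar reader. Potency is pEC50, and efficacy (SPAN) is normalized to fingolimod.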
Target sequence in this assay (P21453 whole entry, looked up): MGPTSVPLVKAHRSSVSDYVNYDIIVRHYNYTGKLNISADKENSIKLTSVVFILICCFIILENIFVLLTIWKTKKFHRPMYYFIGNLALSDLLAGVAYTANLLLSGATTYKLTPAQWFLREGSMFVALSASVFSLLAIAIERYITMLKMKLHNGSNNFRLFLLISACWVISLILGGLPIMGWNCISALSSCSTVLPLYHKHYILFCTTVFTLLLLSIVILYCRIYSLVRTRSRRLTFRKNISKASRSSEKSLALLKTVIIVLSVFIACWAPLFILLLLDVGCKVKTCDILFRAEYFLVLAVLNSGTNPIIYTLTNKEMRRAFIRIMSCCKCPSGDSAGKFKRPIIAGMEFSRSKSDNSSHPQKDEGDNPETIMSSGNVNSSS

[2] = target: T1, human sphingosine-1-phosphate receptor 1 (S1P1); assay: β-Arrestin2 recruitment assay (PathHunter), S1P1 CHO-K1 cells; assay type: cell-based; settings: for Emax: CHO-K1, efficacy (SPAN) normalized to fingolimod, read-out: hS1P1 B-arrestin2 SPAN; for hS1P1 B-arrestin2 pEC50: β-arrestin2 recruitment, S1P1 CHO-K1 cells
Procedure, shortened: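 Enzyme-fragment complementation read-out: agonist-driven β-arrestin2 binding to ProLink-tagged human S1P1 in stable CHO-K1 cells restores β-galactosidase, measured 1 h at room temperature after a 60 min 37° C. compound incubation. Potency as pEC50, efficacy relative to fingolimod (SPAN).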
Target sequence in this assay (P21453 whole entry, looked up): as above
Target sequence in this assay (P32121 whole entry partner, looked up): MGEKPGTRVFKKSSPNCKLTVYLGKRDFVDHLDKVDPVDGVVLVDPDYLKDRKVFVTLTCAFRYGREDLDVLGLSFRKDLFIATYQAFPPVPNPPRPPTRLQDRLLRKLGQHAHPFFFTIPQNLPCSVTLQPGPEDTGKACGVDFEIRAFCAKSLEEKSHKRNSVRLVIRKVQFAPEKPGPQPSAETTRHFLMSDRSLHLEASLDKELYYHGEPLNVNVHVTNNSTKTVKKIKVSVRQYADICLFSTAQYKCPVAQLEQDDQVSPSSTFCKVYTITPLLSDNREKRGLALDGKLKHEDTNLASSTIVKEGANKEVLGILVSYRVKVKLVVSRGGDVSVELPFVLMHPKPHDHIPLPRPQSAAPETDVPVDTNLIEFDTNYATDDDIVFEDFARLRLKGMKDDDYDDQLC

Row | SMILES | Emax [1] [%] | hS1P1 cAMP pEC50 [1] | Emax [2] [%] | hS1P1 B-arrestin2 pEC50 [2]
1 | CCC1(CC)CC(=O)c2cc(-c3nc(-c4ccc(NC(C)=O)cc4)no3)ccc2O1 [Compound 209, N-(4-(5-(2,2-diethyl-4-oxochroman-6-yl)-1,2,4-oxadiazol-3-yl)phenyl)acetamide] | > 75 | >6.5 | > 75 | >5
2 | CC(C)n1nnc2cc(-c3noc(C4CCC4)n3)ccc21 [Compound 18, 5-(5-cyclobutyl-1,2,4-oxadiazol-3-yl)-1-(propan-2-yl)-1H-1,2,3-benzotriazole] | – | <6.5 | – | <5
3 | FC(F)(F)c1cccc(-c2nc(-c3ccc4c(c3)nnn4C3CCCC3)no2)c1 [Compound 12, 3-(1-cyclopentyl-1H-benzo[d][1,2,3]triazol-5-yl)-5-(3-(trifluoromethyl)phenyl)-1,2,4-oxadiazole] | – | <6.5 | – | <5
4 | CCCn1nnc2cc(-c3nc(-c4cccc(C(F)(F)F)c4)no3)ccc21 [Compound 242, 1-propyl-5-{3-[3-(trifluoromethyl)phenyl]-1,2,4-oxadiazol-5-yl}-1H-1,2,3-benzotriazole] | < 75 | <6.5 | < 75 | <5
5 | C=CCNc1ccc(-c2nc(-c3ccc4[nH]nnc4c3)no2)cc1C#N [Compound 145, 5-(3-(1H-benzo[d][1,2,3]triazol-5-yl)-1,2,4-oxadiazol-5-yl)-2-(allylamino)benzonitrile] | – | >6.5 | – | >5
6 | O=C1CC2(CCCC2)Oc2ccc(-c3nc(-c4cccnc4)no3)cc21 [Compound 298, 6-[3-(pyridin-3-yl)-1,2,4-oxadiazol-5-yl]-3,4-dihydrospiro[1-benzopyran-2,1′-cyclopentane]-4-one] | – | <6.5 | – | >5
7 | CCC1(CC)CC(=O)c2cc(-c3nc(-c4ccncc4C)no3)ccc2O1 [Compound 31, 2,2-diethyl-6-(3-(3-methylpyridin-4-yl)-1,2,4-oxadiazol-5-yl)chroman-4-one] | > 75 | >6.5 | > 75 | >5
8 | COc1ccccc1-c1nnc(-c2ccc3c(c2)nnn3C(C)C)s1 [Compound 144, 5-[5-(2-methoxyphenyl)-1,3,4-thiadiazol-2-yl]-1-(propan-2-yl)-1H-1,2,3-benzotriazole] | – | <6.5 | – | >5
9 | CC(C)n1nnc2cc(-c3noc(-c4cnccn4)n3)ccc21 [Compound 78, 3-(1-isopropyl-1H-benzo[d][1,2,3]triazol-5-yl)-5-(pyrazin-2-yl)-1,2,4-oxadiazole] | < 75 | <6.5 | < 75 | <5
10 | CCC1(CC)CC(=O)c2cc(-c3nc(-c4ccncc4)no3)ccc2O1 [Compound 27, 2,2-diethyl-6-[3-(pyridin-4-yl)-1,2,4-oxadiazol-5-yl]-3,4-dihydro-2H-1-benzopyran-4-one] | > 75 | <6.5 | < 75 | >5
11 | Cc1ncc(-c2nc(-c3ccc4c(c3)nnn4C(C)C)no2)nc1C [Compound 133, 5-(5,6-dimethylpyrazin-2-yl)-3-(1-isopropyl-1H-benzo[d][1,2,3]triazol-5-yl)-1,2,4-oxadiazole] | < 75 | <6.5 | < 75 | <5
12 | O=C1CC2(CCCCC2)Oc2ccc(-c3nc(-c4cccnc4)no3)cc21 [Compound 41, 6-[3-(pyridin-3-yl)-1,2,4-oxadiazol-5-yl]-3,4-dihydrospiro[1-benzopyran-2,1′-cyclohexane]-4-one] | < 75 | <6.5 | < 75 | <5
13 | Brc1ccccc1-c1noc(-c2ccc3c(c2)nnn3C2CC2)n1 [Compound 83, 5-[3-(2-bromophenyl)-1,2,4-oxadiazol-5-yl]-1-cyclopropyl-1H-1,2,3-benzotriazole] | > 75 | >6.5 | > 75 | >5
14 | CCC1(CC)CC(=O)c2cc(-c3nc(-c4ccnc(OC)c4)no3)ccc2O1 [Compound 38, 2,2-diethyl-6-(3-(2-methoxypyridin-4-yl)-1,2,4-oxadiazol-5-yl)chroman-4-one] | < 75 | <6.5 | > 75 | <5
15 | O=C1CC2(CCCCC2)Oc2ccc(-c3nc(-c4ccncc4)no3)cc21 [Compound 280, 6-[3-(pyridin-4-yl)-1,2,4-oxadiazol-5-yl]-3,4-dihydrospiro[1-benzopyran-2,1′-cyclohexane]-4-one] | < 75 | <6.5 | < 75 | <5
16 | CC(C)n1nnc2cc(C(=O)Nc3noc4ccccc34)ccc21 [Compound 181, N-(benzo[d]isoxazol-3-yl)-1-isopropyl-1H-benzo[d][1,2,3]triazole-5-carboxamide] | > 75 | <6.5 | > 75 | <5
17 | COc1ccc(-c2nc(-c3ccc4c(c3)nnn4C(C)C)no2)c(C)c1 [Compound 90, 3-(1-isopropyl-1H-benzo[d][1,2,3]triazol-5-yl)-5-(4-methoxy-2-methylphenyl)-1,2,4-oxadiazole] | > 75 | <6.5 | > 75 | >5
18 | Cc1ccccc1C(C)c1noc(-c2ccc3c(c2)nnn3CC(C)C)n1 (stereo not drawn) [Compound 154, 5-{3-[1-(2-methylphenyl)ethyl]-1,2,4-oxadiazol-5-yl}-1-(2-methylpropyl)-1H-1,2,3-benzotriazole] | – | <6.5 | – | <5
19 | CCC1(CC)CC(=O)c2cc(-c3nc(-c4sccc4C)no3)ccc2O1 [Compound 265, 2,2-diethyl-6-(3-(3-methylthiophen-2-yl)-1,2,4-oxadiazol-5-yl)chroman-4-one] | > 75 | >6.5 | < 75 | >5

The remaining lines, values ahead:

Row | Emax [1] [%] | hS1P1 cAMP pEC50 [1] | Emax [2] [%] | hS1P1 B-arrestin2 pEC50 [2] | SMILES
20 | – | >6.5 | – | <5 | Cc1ccncc1-c1noc(-c2cnc3c(c2)nnn3C(C)C)n1 [Compound 414, 4-methyl-3-{5-[3-(propan-2-yl)-3H-[1,2,3]triazolo[4,5-b]pyridin-6-yl]-1,2,4-oxadiazol-3-yl}pyridine]
21 | > 75 | >6.5 | > 75 | >5 | N#Cc1cc(-c2nc(-c3ccc4c(c3)CCC(=O)N4)no2)ccc1NCC(F)F [Compound 344, 2-[(2,2-difluoroethyl)amino]-5-[3-(2-oxo-1,2,3,4-tetrahydroquinolin-6-yl)-1,2,4-oxadiazol-5-yl]benzonitrile]
22 | – | >6.5 | – | <5 | Cc1ccccc1-c1nc(-c2ccc3c(c2)nnn3C(C)(C)CO)no1 [Compound 609, 2-methyl-2-(5-(5-(o-tolyl)-1,2,4-oxadiazol-3-yl)-1H-benzo[d][1,2,3]triazol-1-yl)propan-1-ol]
23 | < 75 | <6.5 | < 75 | <5 | CC(C)(O)Cn1nnc2cc(-c3nc(-c4cocn4)no3)ccc21 [Compound 570, 2-methyl-1-{5-[3-(1,3-oxazol-4-yl)-1,2,4-oxadiazol-5-yl]-1H-1,2,3-benzotriazol-1-yl}propan-2-ol]
24 | > 75 | >6.5 | > 75 | <5 | COc1cc(C)c2nc(-c3ccc4c(c3)nnn4C(C)C)oc2c1 [Compound 436, 2-(1-isopropyl-1H-benzo[d][1,2,3]triazol-5-yl)-6-methoxy-4-methylbenzo[d]oxazole]
25 | – | >6.5 | – | <5 | CC(C)Nc1ccc(-c2nnc(-c3ccc4c(c3)C(=O)NCC4)o2)cc1C#N [Compound 638, 5-[5-(1-oxo-1,2,3,4-tetrahydroisoquinolin-7-yl)-1,3,4-oxadiazol-2-yl]-2-[(propan-2-yl)amino]benzonitrile]
26 | – | >6.5 | – | >5 | CC(C)Cn1nnc2cc(-c3nc4cccc(Br)c4o3)ccc21 [Compound 454, 7-bromo-2-(1-isobutyl-1H-benzo[d][1,2,3]triazol-5-yl)benzo[d]oxazole]
27 | – | >6.5 | – | >5 | CCC1(CC)CC(=O)c2cc(-c3nc(-c4ccnc(NS(C)(=O)=O)c4)no3)ccc2O1 [Compound 556, N-(4-(5-(2,2-diethyl-4-oxochroman-6-yl)-1,2,4-oxadiazol-3-yl)pyridin-2-yl)methanesulfonamide]
28 | – | >6.5 | – | >5 | N#Cc1cc(-c2nnc(-c3ccc4c(c3)CCC(=O)N4)o2)ccc1NCC(F)F [Compound 477, 2-[(2,2-difluoroethyl)amino]-5-[5-(2-oxo-1,2,3,4-tetrahydroquinolin-6-yl)-1,3,4-oxadiazol-2-yl]benzonitrile]
29 | – | >6.5 | – | >5 | CCC1(CC)CC(=O)c2cc(-c3nc(-c4ccc5[nH]c(=O)[nH]c5c4)no3)ccc2O1 [Compound 539, 5-(5-(2,2-diethyl-4-oxochroman-6-yl)-1,2,4-oxadiazol-3-yl)-1H-benzo[d]imidazol-2(3H)-one]
